The record followed here is US6916808B2, “2-thio-4h-3, 1-benzoxazin-4-one derivatives for use as enzyme inhibitors” (Alizyme Therapeutics Limited, priority 2000, dated 2005).

This experiment deals with T1, porcine pancreatic lipase (Sus scrofa, UniProt P00591).
T1 sequence (P00591 1-450): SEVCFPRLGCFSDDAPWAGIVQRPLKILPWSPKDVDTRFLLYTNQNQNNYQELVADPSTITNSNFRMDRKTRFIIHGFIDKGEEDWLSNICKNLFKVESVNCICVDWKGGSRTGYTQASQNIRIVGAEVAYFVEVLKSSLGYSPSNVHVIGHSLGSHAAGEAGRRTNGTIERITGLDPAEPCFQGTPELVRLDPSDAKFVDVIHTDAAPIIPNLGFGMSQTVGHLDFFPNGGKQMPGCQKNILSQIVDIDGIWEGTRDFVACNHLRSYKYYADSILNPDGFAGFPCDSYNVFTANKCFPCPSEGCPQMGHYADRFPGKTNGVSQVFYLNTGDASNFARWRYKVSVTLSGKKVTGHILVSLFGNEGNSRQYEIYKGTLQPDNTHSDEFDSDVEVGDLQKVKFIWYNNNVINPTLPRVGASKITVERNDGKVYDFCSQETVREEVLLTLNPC
Put plainly: Lipase enzyme activity, NaOH titration method (lipid micelles). The experiment is classed as biochemical. The following applies: NaOH titration assay; system containing lipid micelles. Here is the method: Measurement of Lipase Enzyme Activity Using a NaOH Titration Method
The inhibitory activity of the selected compounds to pancreatic lipase was measured in the assay described in Pasquier et al; 1996, Vol 7, Nutritional Biochemistry, 293-302.
Log dose/response curves were constructed using a range of inhibitor concentrations.
Selected benzoxazinone compounds were tested in the NaOH titration assay. In this assay, the activity of porcine pancreatic lipase in a system containing lipid micelles is recorded. These conditions are therefore similar to those encountered in the gastrointestinal tract.

pIC50: −log10 of the molar value.

As to `Cc1ccc2nc(Sc3ccccc3)oc(=O)c2c1` [Compound 4, 6-Methyl-2-phenylthio-4H-3,1-benzoxazin-4-one], the pIC50 – broadly, the negative decadic logarithm of the IC50, by convention in mol/L – was greater than 6.00. The molecule `Cc1ccc2nc(SCCCCCCCCCCc3ccccc3)oc(=O)c2c1` [Compound 5, 6-Methyl-2-(10-phenyldecyl)-thio-4H-3,1-benzoxazin-4-one] had a negative logarithm of the IC50 (pIC50) greater than 6.00.
